Laboratory results reported in PMC12769565, “Design, synthesis and biological activity of glycoconjugated ADAMTS5 exosite inhibitors: applications in osteoarthritis and ovarian cancer models” (Scientific Reports, 2025).

Columns and labels:
Assay type in all cases: biochemical
ADAMTS5 [1] = target: T1, ADAMTS5 (Homo sapiens, UniProt Q9UNA0); test: QF peptide cleavage assay (peptidolytic activity); settings: 100 µM; compared to DMSO control
T1 construct: Human recombinant full-length FLAG-tagged ADAMTS4 and ADAMTS5 were expressed in HEK293T cells; FLAG; made in house; host or cells: HEK293T cells
T1 sequence (Q9UNA0 262-930): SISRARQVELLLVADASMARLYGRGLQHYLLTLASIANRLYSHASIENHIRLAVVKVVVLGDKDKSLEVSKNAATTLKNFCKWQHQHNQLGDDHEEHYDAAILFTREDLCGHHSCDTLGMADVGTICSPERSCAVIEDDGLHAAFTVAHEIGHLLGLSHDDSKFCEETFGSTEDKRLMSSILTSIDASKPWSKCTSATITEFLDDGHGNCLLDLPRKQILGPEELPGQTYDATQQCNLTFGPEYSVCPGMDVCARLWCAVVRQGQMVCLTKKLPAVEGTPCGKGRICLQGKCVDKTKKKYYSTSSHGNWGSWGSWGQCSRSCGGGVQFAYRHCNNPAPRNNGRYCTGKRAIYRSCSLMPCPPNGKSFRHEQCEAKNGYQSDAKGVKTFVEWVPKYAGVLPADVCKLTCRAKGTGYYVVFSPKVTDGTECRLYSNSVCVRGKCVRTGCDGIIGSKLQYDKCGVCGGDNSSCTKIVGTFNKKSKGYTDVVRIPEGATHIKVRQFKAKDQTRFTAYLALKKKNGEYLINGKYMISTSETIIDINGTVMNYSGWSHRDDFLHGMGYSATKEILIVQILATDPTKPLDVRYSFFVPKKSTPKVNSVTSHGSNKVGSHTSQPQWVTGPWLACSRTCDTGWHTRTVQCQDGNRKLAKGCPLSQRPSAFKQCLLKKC
Experimental: (§1) Human recombinant full-length FLAG-tagged ADAMTS4 and ADAMTS5 were expressed in HEK293T cells (Thermo Fisher Scientific) and purified by anti-FLAG immunoaffinity chromatography as before. Concentrations of active proteases were determined by active-site titrations with known concentrations of TIMP-3 (Bio-Techne, 973-TM-010), using QF peptides as substrates. V1-5GAG, a truncated version of versican V1 isoform comprising residues 21–694 and containing a C-terminal 6x His tag[67], was expressed in HE293T cells and purified by immobilized metal affinity chromatography as before.
(§2) QF peptide cleavage assays were conducted in TNC-B (50 mM Tris–HCl, pH 7.5, 150 mM NaCl, 10 mM CaCl2, and 0.02% NaN3) on a SpectraMax i3x Multi-Mode Platform (Molecular Devices, UK) in a total volume of 20 µl at 37℃ as before. ADAMTS4 (3.5 nM) or ADAMTS5 (4 nM) were incubated with compounds 1–4 (100 µM, diluted in TNC-B from 10 mM DMSO stocks) or DMSO for 1 h at 37 ℃ before addition of QF peptides fluorescein-5(6)-carbonyl-[…]N, N,N0,N0-tetramethyl-6-carboxyrhodamine, and fluorescein-5(6)-carbonyl-Thr-Glu-Ser-Glu - […]N, N,N0,N0-tetramethyl-6-carboxyrhodamine, respectively, each at 40 µM. Fluorescence intensity was recorded with an excitation wavelength of 485 nm and an emission wavelength of 535 nm every min for 2 h, expressed as relative fluorescence units and normalized against a blank containing only buffer and substrate. Fluorescence values were converted into residual activity by fixing as 100% the activity of the reactions containing an equal concentration (v/v) of DMSO instead of compound (DMSO control).

ADAMTS4 [2] = target: T2, ADAMTS4 (Homo sapiens, UniProt O75173); test: QF peptide cleavage assay (peptidolytic activity); settings: compared to DMSO control
T2 construct: Human recombinant full-length FLAG-tagged ADAMTS4 and ADAMTS5 were expressed in HEK293T cells; FLAG; made in house; host or cells: HEK293T cells
T2 sequence (O75173 213-837): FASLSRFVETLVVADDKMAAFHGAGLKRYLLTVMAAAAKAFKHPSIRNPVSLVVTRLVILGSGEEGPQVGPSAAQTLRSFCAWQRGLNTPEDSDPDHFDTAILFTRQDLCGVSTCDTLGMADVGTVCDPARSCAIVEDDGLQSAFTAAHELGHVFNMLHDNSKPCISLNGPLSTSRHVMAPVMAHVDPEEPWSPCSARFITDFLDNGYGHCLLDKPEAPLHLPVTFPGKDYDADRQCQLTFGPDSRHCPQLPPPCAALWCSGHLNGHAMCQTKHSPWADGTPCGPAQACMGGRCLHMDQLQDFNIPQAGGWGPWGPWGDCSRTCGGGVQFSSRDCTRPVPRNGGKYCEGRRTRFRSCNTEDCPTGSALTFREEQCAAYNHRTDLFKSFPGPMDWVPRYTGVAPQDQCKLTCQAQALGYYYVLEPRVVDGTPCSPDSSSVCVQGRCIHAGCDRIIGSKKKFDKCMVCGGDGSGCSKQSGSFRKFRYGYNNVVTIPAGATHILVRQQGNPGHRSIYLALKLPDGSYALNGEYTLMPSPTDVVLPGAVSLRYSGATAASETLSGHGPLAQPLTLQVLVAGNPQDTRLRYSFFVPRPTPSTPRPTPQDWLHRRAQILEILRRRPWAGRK
Experimental: as §1, §2

ADAMTS5 [3] = target: T1, ADAMTS5; test: Aggrecanase assay (bovine aggrecan, anti-ARGSV neoepitope immunoblot); settings: 100 µM
Experimental: Aggrecanase assays were carried out as before. ADAMTS5 (1 nM) was incubated with compounds 2 and 3 or DMSO for 2 h at 37 °C in TNC-B buffer before addition of bovine articular aggrecan (UniProt ID: P13608, 270 nM) (Merck, A1960). After 2 h digestion at 37 °C, the reactions were stopped with ethylenediaminetetraacetic acid and the samples incubated with 0.1 U/ml of chondroitinase ABC (AMS Biotechnology, Abingdon, UK) and keratanase (endo-beta galactosidase, Merck, G6920) in deglycosylation buffer (50 mM sodium acetate, 25 mM Tris HCl pH 8.0) for 16 h at 37 °C to remove GAG chains.
Samples were separated by SDS-PAGE under reducing conditions (5% β-mercaptoethanol) on BOLT, 4–12%, Bis-Tris Gels (Invitrogen) in MES Running Buffer (NuPAGE). Proteins were transferred onto a nitrocellulose membrane using Trans-Blot Turbo™ Transfer System (BioRad), at 25 V, 2.5 A for 30 min. Membranes were blocked with 3% BSA/PBS for 1 h at room temperature. Aggrecan fragments generated by ADAMTS cleavage at E^392-A^393[8] or E^1953-A^1954[68] were detected using mouse monoclonal anti-ARGSV antibody (BC3, Life Technologies, MA3-16888, 4 µg/ml) or polyclonal anti-AGEG neoepitope antibody (serum, 1:200 dilution)[12],[33], respectively, followed by the appropriate horseradish peroxidase (HRP)-conjugated secondary antibodies (polyclonal Goat Anti-Mouse P0447, 0.1 ng/µl and polyclonal Goat Anti-Rabbit, P0448, 0.03 ng/µl, both from Agilent Technologies LDA UK Ltd). All antibodies were diluted in 0.5% bovine serum albumin (BSA)/PBS. Washes between each step were carried out in triplicate, for 15 min each, with PBS-Tween (0.1%). Following addition of the chemiluminescent HRP substrate (Millipore, WBKL30500) membranes were imaged using Bio-Rad Chemidoc Touch Imaging System. Analysis was carried out using BioRad ImageLab software (version 5.2.1) using sequential exposures to avoid saturation artifacts. Figures for unprocessed blots are included in Supplementary information Fig. S4 and Fig. S5 with highlighted regions (in red boxes) corresponding to the data reported in the main manuscript figures.

ADAMTS4 [4] = target: T2, ADAMTS4; test: Versicanase assay (V1-5GAG, versikine sandwich ELISA); settings: compared to DMSO control
Experimental: as §1
Compounds 1–4 (100 µM) or DMSO were incubated with ADAMTS4 (5 nM) or ADAMTS5 (0.4 nM) for 2 h at 37 °C, before addition of V1-5GAG (50 nM). At each time point, reactions were stopped by addition of ethylenediaminetetraacetic acid and ADAMTS-generated versican fragments (versikine) quantified by sandwich ELISA as before[29],[30],[38] using anti-DPEAAE neoepitope antibody (Life Technologies, PA1-1748 A, 5 µg/ml) and polyclonal anti-versican antibody (Abcam, ab171887, 3 µg/ml). For each reaction, the amount of versikine generated was derived from a standard curve (0–1.56 nM) of V1-5GAG completely digested with ADAMTS5. Initial velocities were calculated from the concentration of versikine generated as a function of reaction time. Percent of inhibition was calculated from the DMSO control reactions. IC50 values were determined using the formula: vi/v0 = 1/(1 + [I]/IC50) where vi is the initial velocity of substrate cleavage in the presence of the inhibitor at concentration [I] and v0 is the initial velocity in the presence of an equal concentration (v/v) of DMSO.

CCC(C)N(Cc1cn(CCCO[C@@H]2O[C@H](CO[C@@H]3O[C@H](CO)[C@H](O)[C@H](O)[C@H]3O)[C@@H](O)[C@H](O)[C@H]2NC(C)=O)nn1)S(=O)(=O)c1ccc(-c2ccccc2)cc1 (stereo partly drawn) [compound 3, N-((2R,3R,4R,5 S,6R)-2-(3-(4-((N-(sec-butyl)-[1,1’-biphenyl]-4-sulfonamido)methyl)-1 H-1,2,3-triazol-1-yl)propoxy)-4,5-dihydroxy-6-((((2R,3R,4 S,5R,6R)-3,4,5-trihydroxy-6-(hydroxymethyl)tetrahydro-2 H-pyran-2-yl)oxy)methyl)tetrahydro-2 H-pyran-3-yl)acetamide]
inhibition of ADAMTS5 peptidolytic activity (ADAMTS5 [1]): significant inhibition
inhibition at 100 µM (ADAMTS4 [2]): 48%
inhibition of ADAMTS5 aggrecanase activity (ADAMTS5 [3]): ineffective
inhibition at 100 µM (ADAMTS4 [4]): 42%
